Data as given in PMC7339578, “Multiple circulating alkaloids and saponins from intravenous Kang-Ai injection inhibit human cytochrome P450 and UDP-glucuronosyltransferase isozymes: potential drug–drug interactions” (Chinese Medicine, 2020).
“And” between values parts separate entries of the source, which are not always exact repeats. Equal values may be shown once. Read-outs that look alike come from different tables or passages of the source.

Key:
[1] = Plasma pharmacokinetics in rats after a 30-min intravenous infusion of Kang-Ai injection; format: in vivo, Sprague–Dawley rats; conditions: for Cmax: read-out: Cmax; for half-life: read-out: t1/2 (converted); for clearance: read-out: CLtot, p (converted)
Protocol: Specific pathogen free (SPF) grade male Sprague–Dawley rats (250 ± 20) g were provided by the Experimental Animal Center of Zhengzhou University (Zhengzhou, China). These rats were kept in a designated animal room at constant temperature (22 ± 2) °C and humidity (50 ± 20) % with 12 h of light/dark per day and free access to water and food. All protocols of animal experiments were approved in accordance with the Regulations of Experimental Animal Administration issued by the Ethics Review Committee for Animal Experimentation of Jinan University (Ethical Review NO. 20190301010). Prior to the experiments, the rats were fasted for 12 h but with free access to water. After study use, the rats were euthanized with CO2 gas.
The rats in this study all received a single 30-min intravenous infusion of Kang-Ai injection via the tail veins using TYD01-02 infusion pumps (Lead Fluid, Baoding, China). The dose was derived from the label daily dose of Kang-Ai injection (60 mL/person, once daily) according to dose normalization by body surface area. For plasma pharmacokinetic studies, the rats were randomly received a single intravenous 30 min-bolus dose at 6 mL/kg. Blood samples (100 μL) were collected from the rats’ external jugular veins into heparinized polypropylene tubes at 5, 15, 30, 45 min, and 1, 1.5, 2, 3, 4, 6, 8, 12 h. After gently shaking for 10 s, the blood samples were centrifuged at 13000 g for 10 min to yield plasma samples, which were kept frozen at − 80 °C until analysis.
(§1) Pharmacokinetic parameters were estimated by non-compartmental analysis using WinNonlin 6.3 software (Pharsight, NC, US). Data are presented as the mean ± SD (n = 3). The area under the concentration–time curve up to the last measured point in time (AUC0-t) was calculated using the trapezoidal rule. The total plasma clearance (CLtot, p) was calculated by dividing the compound dose by the AUC0-∞, and the distribution volume at steady state (VSS) was estimated by multiplying the CLtot, p by the mean residence time (MRT). The renal excretory clearance (CLR) and hepatobiliary (CLB) was determined by dividing the cumulative amount excreted into urine (Cum.Ae-U) and bile (Cum.Ae-B) by the plasma AUC0-∞, respectively. The fractions of dose excreted into urine (fe-U) and the fractions of dose excreted into bile (fe-B) were established using the relationship Cum.Ae-U/Dose and Cum.Ae-B/Dose, respectively. Mean differences between treatment and control groups were analyzed by two-tailed unpaired Student’s t test by Graphpad Prism V5 software (SanDiego, CA). The level of significance was set at p < 0.05 (∗), p < 0.01 (∗∗) or p < 0.001 (∗∗∗).

[2] = Urinary (renal) excretion in rats after a 30-min infusion of Kang-Ai injection; format: in vivo, Sprague–Dawley rats; conditions: Kang-Ai injection 6 mL/kg iv; for CL renal: male, Sprague-Dawley, in vivo, rat, read-out: CLR (renal excretory clearance) (converted); for fe-U,0–12h (fraction of dose excreted into urine): rat urine 0–12 h
Protocol: (§2) For urine sampling, the rats were housed singly in metabolic cages. And then, the urine samples were collected at 0–4, 4–8 and 8–12 h after starting infusion and were weighed. Likewise, bile samples were also collected at 0–3, 3–6, 6–9 and 9–12 h after starting infusion and were weighed. The urine and bile collection tubes were all frozen at − 80 °C.
as §1

[3] = Biliary (hepatobiliary) excretion in rats after a 30-min infusion of Kang-Ai injection; format: in vivo, Sprague–Dawley rats; conditions: rat bile 0–12 h; Kang-Ai injection 6 mL/kg iv
Protocol: as §2, §1

[4] = Protein binding assay (equilibrium dialysis); format: in vitro ADME, rat; conditions: rat plasma, equilibrium dialysis 24 h, 37 °C, 2 μmol/L alkaloids, 4 μmol/L saponins; for fraction unbound at 24 h: read-out: fu-plasma (unbound fraction)
Protocol: Binding of circulating alkaloids and saponins to rat plasma was measured by equilibrium dialysis using Spectra/Por 2 dialysis membranes (molecular weight cutoff, 12–14 kDa; Rancho Dominguez, CA, USA) as described. After equilibrating for 24 h at 55 rpm and 37 °C, the dialysate and the plasma were sampled for analysis. […] The concentrations of tested matrine, oxysophocarpine and oxymatrine were 2 μmol/L, while those of astragaloside IV, III, and ginsenosides Rh1, Rg2, Rg1, Rf, Re, Rd, Rc, Rb1, Rb2, notoginsenosides R1, R2, were 4 μmol/L. The unbound fraction (fu-plasma) in rat plasma was calculated as follow: fu-plasma = Cd/Cp × 100%, where the Cd and Cp values were the concentrations of each analyte in the dialysate sample and in the post-dialysis plasma sample, respectively.

[5] = Stability tests of analytes in rat plasma QC samples; format: in vitro ADME; conditions: rat plasma
Protocol: […] The dilution integrity was investigated by analyzing six replicate samples with each analyte, and each analyte were diluted 10-fold with blank rat matrix. Furthermore, the diluted samples were analyzed using freshly prepared calibration curve to calculate RE and RSD, which should be no more than ± 15% as criterion.

[6] = male, Sprague-Dawley, in vivo, rat plasma, 30-min iv infusion of Kang-Ai injection 6 mL/kg
[7] = male, Sprague-Dawley, in vivo, rat, 30-min iv infusion of Kang-Ai injection 6 mL/kg, Table 1 unit
[8] = male, Sprague-Dawley, in vivo, rat, 30-min iv infusion of Kang-Ai injection 6 mL/kg, Table 1 unit, read-out: VSS
[9] = rat plasma, 30-min iv infusion of Kang-Ai injection 6 mL/kg

Compound | fe-U,0–12h (fraction of dose excreted into urine) [2] | fe-B,0–12h (fraction of dose excreted into bile) [3] | At -80 °C for 48 h, Mean±SD ([5]; nominal conc. 20 nM) [nM] | At -80 °C for 48 h, RE ([5]; nominal conc. 20 nM) [%] | Extracted samples at 8 °C for 18 h, Mean±SD ([5]; nominal conc. 20 nM) [nM] | Extracted samples at 8 °C for 18 h, RE ([5]; nominal conc. 20 nM) [%] | Short-term stability at room temperature for 6 h, Mean±SD ([5]; nominal conc. 20 nM) [nM] | Short-term stability at room temperature for 6 h, RE ([5]; nominal conc. 20 nM) [%] | Three freeze-thaw cycles (-80 °C ↔ 23 °C), Mean±SD ([5]; nominal conc. 20 nM) [nM] | Three freeze-thaw cycles (-80 °C ↔ 23 °C), RE ([5]; nominal conc. 20 nM) [%] | At -80 °C for 48 h, Mean±SD ([5]; nominal conc. 100 nM) [nM] | At -80 °C for 48 h, RE ([5]; nominal conc. 100 nM) [%] | Extracted samples at 8 °C for 18 h, Mean±SD ([5]; nominal conc. 100 nM) [nM] | Extracted samples at 8 °C for 18 h, RE ([5]; nominal conc. 100 nM) [%] | Short-term stability at room temperature for 6 h, Mean±SD ([5]; nominal conc. 100 nM) [nM] | Short-term stability at room temperature for 6 h, RE ([5]; nominal conc. 100 nM) [%] | Three freeze-thaw cycles (-80 °C ↔ 23 °C), Mean±SD ([5]; nominal conc. 100 nM) [nM] | Three freeze-thaw cycles (-80 °C ↔ 23 °C), RE ([5]; nominal conc. 100 nM) [%] | At -80 °C for 48 h, Mean±SD ([5]; nominal conc. 400 nM) [nM] | At -80 °C for 48 h, RE ([5]; nominal conc. 400 nM) [%] | also measured
O=C1C=CC[C@@H]2[C@H]3CCC[N+]4([O-])CCC[C@@H](CN12)[C@@H]34 (stereo partly shown) [Compound A2, Oxysophocarpine] | 38.60% and 38.60 ± 11.22% | 51.92% and 51.92 ± 8.98% | 21.90 ± 0.32 | 10.73 | 22.58 ± 0.11 | 13.22 | 20.94 ± 1.33 | 12.22 | 22.63 ± 0.15 | 13.81 | 112.64 ± 0.85 | 13.54 | 108.59 ± 6.59 | 14.25 | 103.12 ± 8.16 | 12.17 | 103.40 ± 9.41 | 12.06 | 437.15 ± 14.08 | 11.61 | Cmax [1, 6]: 170 ± 27.4 nM; half-life [1, 6]: 107 ± 93 min; clearance [1, 7]: 0.205 mL/min; Vd [1, 8]: 0.0252 ± 0.0148 L; clearance ([1]; male, Sprague-Dawley, in vivo, rat, Kang-Ai injection 6 mL/kg iv): 0.205 mL/min/kg; Vd ([1]; male, Sprague-Dawley, in vivo, rat, Kang-Ai injection 6 mL/kg iv, read-out: VSS (Vd)): 0.0252 L/kg; CL renal [2]: 0.0792 mL/min; fraction of dose excreted unchanged via renal plus hepatobiliary excretion (sum of fe-U and fe-B) ([2]; rat urine + bile, 0–12 h): exceeded 90%; fraction unbound at 24 h [4]: 0.912 ± 0.0495; Extracted samples at 8 °C for 18 h, Mean±SD ([5]; nominal conc. 400 nM): 432.22 ± 7.29 nM; Extracted samples at 8 °C for 18 h, RE ([5]; nominal conc. 400 nM): 9.98%; Short-term stability at room temperature for 6 h, Mean±SD ([5]; nominal conc. 400 nM): 439.31 ± 14.14 nM; Short-term stability at room temperature for 6 h, RE ([5]; nominal conc. 400 nM): 12.94%; Three freeze-thaw cycles (-80 °C ↔ 23 °C), Mean±SD ([5]; nominal conc. 400 nM): 418.53 ± 37.48 nM; Three freeze-thaw cycles (-80 °C ↔ 23 °C), RE ([5]; nominal conc. 400 nM): 14.91%
CC(C)=CCC[C@](C)(O[C@@H]1O[C@H](CO)[C@@H](O)[C@H](O)[C@H]1O)[C@H]1CC[C@]2(C)[C@@H]1[C@H](O)C[C@@H]1[C@@]3(C)CC[C@H](O)C(C)(C)[C@@H]3[C@@H](O[C@@H]3O[C@H](CO)[C@@H](O)[C@H](O)[C@H]3O[C@@H]3OC[C@@H](O)[C@H](O)[C@H]3O)C[C@]12C [Compound C8, Notoginsenoside R1] | 72.12 ± 13.01% | 12.00 ± 1.57% | 20.74 ± 0.96 | 8.27 | 19.67 ± 2.39 | -11.85 | 17.74 ± 0.16 | -12.08 | 21.51 ± 1.68 | 12.79 | 98.21 ± 9.98 | 9.58 | 97.66 ± 12.82 | 12.46 | 92.24 ± 4.21 | -10.97 | 97.29 ± 6.47 | -10.11 | 413.01 ± 31.69 | 11.76 | t1/2 [1, 9]: 45 ± 9.6 min; Cmax [1, 9]: 121 ± 21.1 nM; fu-plasma (unbound fraction) [4]: 90.36 ± 4.22%; Extracted samples at 8 °C for 18 h, Mean±SD ([5]; nominal conc. 400 nM): 402.54 ± 33.33 nM; Extracted samples at 8 °C for 18 h, RE ([5]; nominal conc. 400 nM): 9.82%; Short-term stability at room temperature for 6 h, Mean±SD ([5]; nominal conc. 400 nM): 357.29 ± 9.94 nM; Short-term stability at room temperature for 6 h, RE ([5]; nominal conc. 400 nM): -13.09%; Three freeze-thaw cycles (-80 °C ↔ 23 °C), Mean±SD ([5]; nominal conc. 400 nM): 379.04 ± 38.85 nM; Three freeze-thaw cycles (-80 °C ↔ 23 °C), RE ([5]; nominal conc. 400 nM): -14.53%
CC(C)=CCC[C@](C)(O)[C@H]1CC[C@]2(C)[C@@H]1[C@H](O)C[C@@H]1[C@@]3(C)CC[C@H](O)C(C)(C)[C@@H]3[C@@H](O[C@@H]3O[C@H](CO)[C@@H](O)[C@H](O)[C@H]3O)C[C@]12C [Compound C1, Ginsenoside Rh1] | 9.59 ± 1.68% | 9.71 ± 0.98% | 22.38 ± 0.33 | 13.76 | 20.79 ± 2.88 | -12.72 | 20.81 ± 2.57 | 13.31 | 20.14 ± 2.50 | -13.10 | 88.26 ± 1.17 | -13.03 | 100.20 ± 11.08 | 12.81 | 92.25 ± 8.56 | -13.70 | 99.91 ± 9.81 | -10.86 | 379.88 ± 25.01 | -9.26 | Cmax [1, 6]: 140 ± 20.4 nM; half-life [1, 6]: 26.4 ± 23.4 min; clearance [1, 7]: 3.31 mL/min; Vd [1, 8]: 0.0936 ± 0.0456 L; AUC(0-t) ([1]; male, Sprague-Dawley, rat, in vivo, iv, rat plasma, 30-min iv infusion of Kang-Ai injection 6 mL/kg, read-out: AUC0–12h): 0.0912 ± 0.00477 µM·h; CL renal [2]: 0.316 mL/min; fraction unbound at 24 h [4]: 0.463 ± 0.0503; Extracted samples at 8 °C for 18 h, Mean±SD ([5]; nominal conc. 400 nM): 424.42 ± 36.39 nM; Extracted samples at 8 °C for 18 h, RE ([5]; nominal conc. 400 nM): 12.32%; Short-term stability at room temperature for 6 h, Mean±SD ([5]; nominal conc. 400 nM): 376.44 ± 26.61 nM; Short-term stability at room temperature for 6 h, RE ([5]; nominal conc. 400 nM): -12.62%; Three freeze-thaw cycles (-80 °C ↔ 23 °C), Mean±SD ([5]; nominal conc. 400 nM): 370.01 ± 38.18 nM; Three freeze-thaw cycles (-80 °C ↔ 23 °C), RE ([5]; nominal conc. 400 nM): -13.77%
